Values after ≈ are worked out from the molar mass of the structure shown.
Columns and labels:
[1] = test system: clinically isolated 12525 strains (rifampicin- and isoniazid-resistant strains); test: microbe, parasite or virus in culture; type: cell-based; settings: Mycobacterium tuberculosis, read-out: MIC 12525
[2] = test system: Linezolid-resistant strain; test: microbe, parasite or virus in culture; type: cell-based; settings: Mycobacterium tuberculosis, read-out: MIC Linezolid-resistant strain

Structure (SMILES) | MIC [1] [µg/mL] | MIC [2] [µg/mL]
CC(=O)NC[C@@H]1OC(=O)N2c3cc(F)c(N4CCSCC4)cc3OC[C@@H]12 [Compound 4, N-(((3S,3aS)-8-Fluoro-1-oxo-7-thiomorpholino-3a,4-dihydro-1H,3H-benzo[b]oxazolo[3,4-d][1,4]oxazin-3-yl)methyl)acetamide] | < 0.016 | 0.246 (≈ 0.645 µM)
CC(=O)NC[C@@H]1OC(=O)N2c3cc(F)c(N4CC[S+]([O-])CC4)cc3OC[C@@H]12 [Compound 23, N-(((3S,3aS)-8-Fluoro-1-oxo-7-(1-oxidothiomorpholino)-3a,4-dihydro-1H,3H-benzo[b]oxazolo[3,4-d][1,4]oxazin-3-yl)methyl)acetamide] | 0.053 (≈ 0.133 µM) | 
CC(=O)NC[C@H]1OC(=O)N2c3cc(F)c(N4CCSCC4)cc3OC[C@H]12 [Compound 28, N-(((3R,3aR)-8-Fluoro-1-oxo-7-thiomorpholino-3a,4-dihydro-1H,3H-benzo[b]oxazolo[3,4-d][1,4]oxazin-3-yl)methyl)acetamide] | 0.047 (≈ 0.123 µM) | 3.02 (≈ 7.91 µM)
CC(=O)NC[C@@H]1OC(=O)N2c3ccc(N4CCOCC4)cc3OC[C@@H]12 [Compound VII, reference compound] | 0.119 (≈ 0.343 µM) | 21.6 (≈ 62.2 µM)
CC(=O)NC[C@H]1CN(c2ccc(N3CCOCC3)c(F)c2)C(=O)O1 [Linezolid, reference compound] | 0.138 (≈ 0.409 µM) | 4 (≈ 11.9 µM)
NNC(=O)c1ccncc1 [isoniazid] | > 40 | 0.032 (≈ 0.233 µM)
CO[C@H]1/C=C/O[C@@]2(C)Oc3c(C)c(O)c4c(O)c(c(/C=N/N5CCN(C)CC5)c(O)c4c3C2=O)NC(=O)/C(C)=C\C=C\[C@H](C)[C@H](O)[C@@H](C)[C@@H](O)[C@@H](C)[C@H](OC(C)=O)[C@@H]1C [rifampicin] | 22.4 (≈ 27.2 µM) | 0.073 (≈ 0.0887 µM)

— patent publication US11332477B2, “Nitrogen containing heterocycle substituted benzoxazine oxazolidinone compound and preparation method and use thereof” (INSTITUTE OF MATERIA MEDICA, CHINESE ACADEMY OF MEDICAL …, priority 2017, dated 2022)
